Reference: ChEMBL document CHEMBL6103588, “Promising thiazolidinedione-thiazole based multi-target and neuroprotective hybrids for Alzheimer's disease: Design, synthesis, in-vitro, in-vivo and in-silico studies” (Eur J Med Chem, 2025)

Legend:
[1] = target: Prostaglandin G/H synthase 1 (Homo sapiens, UniProt P23219)
[2] = target: Beta-secretase 1 (Homo sapiens, UniProt P56817); test: Inhibition of BACE-1 (unknown origin) 667-676- (2, 4-dinitrophenyl) Lys-Arg-Arg amide trifluoroacetate as substrate preincubated for 15 mins followed by substrate addition and measured after 2 hrs by fluorescence spectrometric analysis
[3] = target: Acetylcholinesterase (Electrophorus electricus, UniProt O42275); test: Inhibition of Electric eel AChE using acetylthiocholine iodide as substrate pre-incubated for 10 mins followed by substrate addition and measured after 15 mins by DTNB reagent based Ellman's method
[4] = target: T1, Amine oxidase [flavin-containing] B (Homo sapiens, UniProt P27338); settings: read-out: INH
T1 sequence (P27338 whole entry): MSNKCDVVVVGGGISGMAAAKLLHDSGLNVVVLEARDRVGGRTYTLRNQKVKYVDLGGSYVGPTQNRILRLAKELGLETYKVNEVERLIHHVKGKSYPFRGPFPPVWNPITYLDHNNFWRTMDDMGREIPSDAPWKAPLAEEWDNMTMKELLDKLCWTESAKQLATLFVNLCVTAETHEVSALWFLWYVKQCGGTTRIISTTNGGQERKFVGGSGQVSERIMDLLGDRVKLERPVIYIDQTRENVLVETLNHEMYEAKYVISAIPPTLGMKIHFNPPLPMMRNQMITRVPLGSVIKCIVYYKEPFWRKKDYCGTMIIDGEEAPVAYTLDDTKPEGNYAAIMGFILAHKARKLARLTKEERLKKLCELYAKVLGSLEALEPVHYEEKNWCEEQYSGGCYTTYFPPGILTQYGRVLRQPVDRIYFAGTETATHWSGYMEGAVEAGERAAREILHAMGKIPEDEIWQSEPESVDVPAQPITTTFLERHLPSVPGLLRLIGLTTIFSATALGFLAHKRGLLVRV
Description: Inhibition of MAO-B (unknown origin) at 100 uM relative to control

[5] = target: Cholinesterase (Homo sapiens, UniProt P06276); test: Inhibition of BChE (unknown origin)
[6] = target: T2, Amine oxidase [flavin-containing] A (Homo sapiens, UniProt P21397); test: Inhibition of human MAO-A using tyramine/benzylamine as substrate measured after 30 mins by fluorometric assay
T2 sequence (P21397 whole entry): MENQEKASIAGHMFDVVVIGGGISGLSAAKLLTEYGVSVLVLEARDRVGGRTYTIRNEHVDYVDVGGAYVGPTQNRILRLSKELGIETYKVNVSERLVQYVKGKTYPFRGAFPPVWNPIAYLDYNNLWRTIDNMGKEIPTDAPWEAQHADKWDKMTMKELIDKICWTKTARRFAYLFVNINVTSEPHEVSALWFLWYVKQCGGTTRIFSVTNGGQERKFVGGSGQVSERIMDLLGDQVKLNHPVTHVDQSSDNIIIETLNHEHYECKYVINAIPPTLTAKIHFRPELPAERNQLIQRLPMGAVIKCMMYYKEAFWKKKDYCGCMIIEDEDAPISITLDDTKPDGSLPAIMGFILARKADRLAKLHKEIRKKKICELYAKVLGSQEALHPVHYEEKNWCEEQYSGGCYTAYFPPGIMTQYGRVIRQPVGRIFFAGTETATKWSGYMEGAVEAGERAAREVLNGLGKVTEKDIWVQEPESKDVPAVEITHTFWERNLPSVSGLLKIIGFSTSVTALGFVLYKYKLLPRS

[7] = target: Acetylcholinesterase (Homo sapiens, UniProt P22303); test: Inhibition of AChE (unknown origin) using acetylthiocholine iodide as substrate pre-incubated for 30 mins followed by substrate addition and measured after 30 mins by DTNB reagent based Ellman's method
[8] = target: T1, Amine oxidase [flavin-containing] B; test: Inhibition of MAO-B (unknown origin)
[9] = Neurotoxicity against human SH-SY5Y cells assessed as reduction in cell viability upto 50 uM incubated for 24 hrs by MTT assay; assay type: toxicity, cell-based
[10] = in vitro; settings: PAMPA, pH 7.4
Description: Permeability of compound in PBS at pH 7.4 incubated for 20 hrs by PAMPA-BBB assay

[11] = Lipophilicity, logP of compound; assay type: physicochemical; settings: octanol/water
[12] = target: Cholinesterase (Equus caballus, UniProt P81908); test: Inhibition of equine serum BuChE using butyrylthiocholine iodide as substrate pre-incubated for 10 mins followed by substrate addition and measured after 15 mins by DTNB reagent based Ellman's method
[13] = target: T3, Polyunsaturated fatty acid 5-lipoxygenase (Homo sapiens, UniProt P09917); test: Inhibition of 5-LOX (unknown origin) using linoleic acid as substrate incubated for 5 mins followed by substrate addition
T3 sequence (P09917 whole entry): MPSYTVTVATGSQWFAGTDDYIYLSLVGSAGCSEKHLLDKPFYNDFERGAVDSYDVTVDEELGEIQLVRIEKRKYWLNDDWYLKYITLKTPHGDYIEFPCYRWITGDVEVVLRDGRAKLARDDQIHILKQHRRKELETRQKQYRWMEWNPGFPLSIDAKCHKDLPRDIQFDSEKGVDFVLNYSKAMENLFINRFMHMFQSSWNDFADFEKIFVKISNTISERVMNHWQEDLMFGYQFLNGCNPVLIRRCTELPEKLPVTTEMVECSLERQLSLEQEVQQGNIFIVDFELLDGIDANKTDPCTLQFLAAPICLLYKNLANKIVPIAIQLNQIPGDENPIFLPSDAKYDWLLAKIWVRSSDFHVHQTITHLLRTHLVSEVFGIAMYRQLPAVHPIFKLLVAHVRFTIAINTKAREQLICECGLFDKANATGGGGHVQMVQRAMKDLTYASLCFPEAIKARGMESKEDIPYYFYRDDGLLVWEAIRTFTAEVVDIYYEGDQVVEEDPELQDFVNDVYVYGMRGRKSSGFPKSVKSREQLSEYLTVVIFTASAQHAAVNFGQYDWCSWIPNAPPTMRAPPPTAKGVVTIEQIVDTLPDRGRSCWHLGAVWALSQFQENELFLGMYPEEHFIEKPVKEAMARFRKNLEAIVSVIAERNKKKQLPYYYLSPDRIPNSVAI

[14] = target: T1, Amine oxidase [flavin-containing] B; test: Inhibition of human MAO-B using tyramine/benzylamine as substrate measured after 30 mins by fluorometric assay
[15] = target: T4, Prostaglandin G/H synthase 2 (Homo sapiens, UniProt P35354)
T4 sequence (P35354 whole entry): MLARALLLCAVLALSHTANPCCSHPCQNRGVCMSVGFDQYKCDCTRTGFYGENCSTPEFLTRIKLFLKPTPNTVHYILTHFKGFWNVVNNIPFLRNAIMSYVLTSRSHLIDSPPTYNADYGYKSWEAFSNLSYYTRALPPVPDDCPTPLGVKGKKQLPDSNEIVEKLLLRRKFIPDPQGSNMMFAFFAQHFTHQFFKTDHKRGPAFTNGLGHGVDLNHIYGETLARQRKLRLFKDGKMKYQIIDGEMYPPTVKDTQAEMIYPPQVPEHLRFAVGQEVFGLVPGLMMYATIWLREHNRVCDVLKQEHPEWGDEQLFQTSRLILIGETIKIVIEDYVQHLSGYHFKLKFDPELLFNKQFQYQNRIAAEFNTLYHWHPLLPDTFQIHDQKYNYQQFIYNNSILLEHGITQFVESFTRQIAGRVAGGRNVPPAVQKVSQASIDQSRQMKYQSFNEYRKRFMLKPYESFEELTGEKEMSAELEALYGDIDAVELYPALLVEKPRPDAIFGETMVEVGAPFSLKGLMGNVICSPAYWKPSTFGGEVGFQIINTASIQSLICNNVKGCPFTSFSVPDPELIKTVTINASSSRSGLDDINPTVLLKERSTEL
Description: Inhibition of COX-2 (unknown origin) using arachidonic acid as substrate and in presence of TMPD preincubated for 5 mins followed by substrate addition and measured after 5 mins by UV visible spectrophotometric analysis

[16] = target: T4, Prostaglandin G/H synthase 2; test: Inhibition of human COX2 by EIA method

Chain of Prostaglandin G/H synthase 1 (P23219 whole entry): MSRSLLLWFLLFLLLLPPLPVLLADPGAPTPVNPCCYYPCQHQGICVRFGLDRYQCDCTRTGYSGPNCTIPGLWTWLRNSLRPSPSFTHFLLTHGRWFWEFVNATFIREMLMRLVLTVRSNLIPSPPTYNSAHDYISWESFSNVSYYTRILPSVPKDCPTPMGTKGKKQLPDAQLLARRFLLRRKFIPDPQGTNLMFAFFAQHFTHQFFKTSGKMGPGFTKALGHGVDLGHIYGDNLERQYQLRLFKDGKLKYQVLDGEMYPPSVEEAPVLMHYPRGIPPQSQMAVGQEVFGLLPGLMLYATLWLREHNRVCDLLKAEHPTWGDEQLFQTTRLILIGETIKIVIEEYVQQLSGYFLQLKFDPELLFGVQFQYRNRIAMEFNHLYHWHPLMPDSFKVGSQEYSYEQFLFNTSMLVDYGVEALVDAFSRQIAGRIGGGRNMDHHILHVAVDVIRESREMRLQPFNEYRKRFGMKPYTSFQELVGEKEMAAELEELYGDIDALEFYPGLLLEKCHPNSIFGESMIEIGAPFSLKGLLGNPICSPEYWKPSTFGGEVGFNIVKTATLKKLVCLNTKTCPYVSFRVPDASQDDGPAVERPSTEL
Chain of Cholinesterase (Equus caballus, UniProt P81908) (P81908 whole entry): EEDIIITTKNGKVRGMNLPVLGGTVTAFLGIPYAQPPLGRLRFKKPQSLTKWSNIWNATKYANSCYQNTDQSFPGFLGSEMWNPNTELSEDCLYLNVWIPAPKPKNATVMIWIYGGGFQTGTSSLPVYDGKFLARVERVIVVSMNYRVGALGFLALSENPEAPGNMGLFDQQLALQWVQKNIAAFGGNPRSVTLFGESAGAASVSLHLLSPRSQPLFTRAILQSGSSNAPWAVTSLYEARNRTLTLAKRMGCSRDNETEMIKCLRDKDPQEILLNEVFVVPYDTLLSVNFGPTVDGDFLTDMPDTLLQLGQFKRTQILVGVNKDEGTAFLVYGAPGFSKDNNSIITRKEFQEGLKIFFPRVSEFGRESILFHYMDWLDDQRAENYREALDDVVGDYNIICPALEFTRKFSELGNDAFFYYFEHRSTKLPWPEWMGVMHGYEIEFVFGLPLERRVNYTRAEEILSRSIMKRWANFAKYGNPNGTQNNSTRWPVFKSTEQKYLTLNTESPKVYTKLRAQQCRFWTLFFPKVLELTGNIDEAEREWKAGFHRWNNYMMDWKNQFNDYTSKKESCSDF
Chain of Acetylcholinesterase (Electrophorus electricus, UniProt O42275) (O42275 whole entry): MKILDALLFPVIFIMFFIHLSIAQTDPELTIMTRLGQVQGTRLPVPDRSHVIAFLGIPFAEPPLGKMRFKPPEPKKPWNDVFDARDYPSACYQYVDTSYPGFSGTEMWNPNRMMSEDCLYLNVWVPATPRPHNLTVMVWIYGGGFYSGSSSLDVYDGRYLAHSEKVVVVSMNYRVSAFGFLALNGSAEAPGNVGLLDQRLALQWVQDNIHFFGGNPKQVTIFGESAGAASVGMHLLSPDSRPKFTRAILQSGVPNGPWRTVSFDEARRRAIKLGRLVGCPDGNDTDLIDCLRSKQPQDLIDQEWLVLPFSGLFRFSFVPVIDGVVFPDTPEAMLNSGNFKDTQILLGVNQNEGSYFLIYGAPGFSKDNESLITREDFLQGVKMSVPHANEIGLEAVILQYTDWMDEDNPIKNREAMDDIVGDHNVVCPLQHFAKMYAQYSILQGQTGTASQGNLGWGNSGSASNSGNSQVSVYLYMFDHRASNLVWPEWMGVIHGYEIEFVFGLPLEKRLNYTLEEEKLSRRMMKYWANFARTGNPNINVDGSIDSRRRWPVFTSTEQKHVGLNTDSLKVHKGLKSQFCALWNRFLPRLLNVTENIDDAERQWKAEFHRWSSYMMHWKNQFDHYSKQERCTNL
Chain of Beta-secretase 1 (P56817 whole entry): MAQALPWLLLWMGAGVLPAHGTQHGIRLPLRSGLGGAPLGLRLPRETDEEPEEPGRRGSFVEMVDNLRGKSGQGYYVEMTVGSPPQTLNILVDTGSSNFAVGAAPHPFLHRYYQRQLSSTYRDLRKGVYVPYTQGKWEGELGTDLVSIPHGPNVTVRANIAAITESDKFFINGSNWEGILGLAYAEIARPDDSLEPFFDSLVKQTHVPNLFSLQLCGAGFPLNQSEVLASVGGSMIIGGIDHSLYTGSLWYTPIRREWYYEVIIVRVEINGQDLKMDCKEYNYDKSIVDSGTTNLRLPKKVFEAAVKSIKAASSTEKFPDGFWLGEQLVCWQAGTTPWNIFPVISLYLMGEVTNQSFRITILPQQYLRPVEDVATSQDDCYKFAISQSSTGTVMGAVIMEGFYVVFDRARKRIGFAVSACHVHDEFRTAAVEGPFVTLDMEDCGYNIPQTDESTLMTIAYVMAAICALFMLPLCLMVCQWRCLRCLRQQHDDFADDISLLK
Chain of Cholinesterase (Homo sapiens, UniProt P06276) (P06276 whole entry): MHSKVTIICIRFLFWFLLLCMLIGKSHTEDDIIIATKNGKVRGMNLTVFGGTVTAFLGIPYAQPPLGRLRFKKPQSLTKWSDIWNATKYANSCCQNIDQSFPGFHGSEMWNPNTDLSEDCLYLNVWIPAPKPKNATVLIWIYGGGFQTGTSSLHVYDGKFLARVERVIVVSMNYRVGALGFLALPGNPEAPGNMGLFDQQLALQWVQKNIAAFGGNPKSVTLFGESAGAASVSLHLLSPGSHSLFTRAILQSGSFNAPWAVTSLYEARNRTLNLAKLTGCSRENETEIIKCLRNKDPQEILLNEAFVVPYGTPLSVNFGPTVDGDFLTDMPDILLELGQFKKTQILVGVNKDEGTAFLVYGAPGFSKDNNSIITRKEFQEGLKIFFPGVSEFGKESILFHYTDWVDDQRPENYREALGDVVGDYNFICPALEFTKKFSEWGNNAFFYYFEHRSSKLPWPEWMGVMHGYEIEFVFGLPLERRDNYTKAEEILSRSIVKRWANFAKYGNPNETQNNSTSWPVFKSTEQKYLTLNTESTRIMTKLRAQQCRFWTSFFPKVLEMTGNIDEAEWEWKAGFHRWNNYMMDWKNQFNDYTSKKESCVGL
Chain of Acetylcholinesterase (Homo sapiens, UniProt P22303) (P22303 whole entry): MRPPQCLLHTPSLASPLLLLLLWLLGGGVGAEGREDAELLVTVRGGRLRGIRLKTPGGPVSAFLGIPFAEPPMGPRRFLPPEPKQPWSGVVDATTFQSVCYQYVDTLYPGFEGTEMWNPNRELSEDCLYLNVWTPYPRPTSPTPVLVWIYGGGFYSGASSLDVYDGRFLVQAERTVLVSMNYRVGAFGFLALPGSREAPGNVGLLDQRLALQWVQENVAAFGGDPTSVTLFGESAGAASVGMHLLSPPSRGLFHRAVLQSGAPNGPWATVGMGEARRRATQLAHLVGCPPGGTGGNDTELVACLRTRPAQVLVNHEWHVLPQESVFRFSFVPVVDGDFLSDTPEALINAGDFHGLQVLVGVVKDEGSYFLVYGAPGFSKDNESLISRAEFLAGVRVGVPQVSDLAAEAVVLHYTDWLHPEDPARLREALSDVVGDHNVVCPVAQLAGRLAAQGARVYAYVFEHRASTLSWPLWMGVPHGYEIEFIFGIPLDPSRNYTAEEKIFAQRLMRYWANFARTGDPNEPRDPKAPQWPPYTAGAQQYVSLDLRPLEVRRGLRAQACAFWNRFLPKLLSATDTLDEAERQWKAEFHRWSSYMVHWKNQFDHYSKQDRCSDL

O=C(CN1C(=O)S/C(=C\c2c[nH]c3ccccc23)C1=O)Nc1nc2ccccc2s1 showed an IC50 ([1]; read-out: IC50) of 42500 nM, an IC50 ([2]; read-out: IC50) of 910 nM and an IC50 ([3]; read-out: IC50) of 450 nM.

O=C(CCN1CCCC1)Nc1nc2ccc(Br)cc2s1 showed an inhibition at 100 µM [4] of 66% and an IC50 [5] of 12000 nM.

With O=C(CN1C(=O)S/C(=C\c2ccc(O)cc2)C1=O)Nc1nc2ccccc2s1 the IC50 ([3]; read-out: IC50) was 2760 nM and the IC50 [6] was “Not_active”.

Cc1ccc2sc(NC(=O)CCN3CCCC3)nc2c1 showed an inhibition at 100 µM [4] of 60% and an IC50 [5] of 15000 nM.

O=C(/C=C/c1ccc(-c2ccccc2)cc1)Nc1nc2ccc(O)cc2s1 showed an IC50 [7] of 71 nM and an IC50 [8] of 37 nM.

With O=C1S/C(=C\c2c[nH]c3ccccc23)C(=O)N1CNc1nc(-c2ccccc2)cs1 the IC50 ([2]; read-out: IC50) was 760 nM, the Activity [9] was “Non-toxic” and the Papp at 20 h [10] was 10.7 ×10⁻⁶ cm/s. The IC50 ([3]; read-out: IC50) was 52 nM and the logP [11] was 4.65.

For O=C1S/C(=C\c2ccc(O)cc2)C(=O)N1CNc1nc2ccccc2s1, the IC50 ([3]; read-out: IC50) was 5980 nM.

With O=C1S/C(=C\c2ccccc2)C(=O)N1CNc1nc(-c2cc(Cl)cs2)c(Nc2ccccc2)s1 the IC50 [1] was “Not_active”, the IC50 ([2]; read-out: IC50) was 490 nM and the IC50 [12] was 230 nM. The IC50 [3] was “Not_active”.

With O=C(/C=C/c1ccccc1)Nc1ccc2sc(NCN3C(=O)CSC3=O)nc2c1 the IC50 [13] was 210 nM, the IC50 [2] was “Not_active” and the IC50 [14] was 14700 nM. It also gave an IC50 ([3]; read-out: IC50) of 9070 nM, an IC50 ([6]; read-out: IC50) of 65400 nM and an IC50 [15] of 107 nM.

Work on CCn1cc(C(=O)O)c(=O)c2cc(F)c(N3CCNC(C)C3)c(F)c21 (stereo not given) [LOMEFLOXACIN] yielded a Papp at 20 h [10] of 1.13 ×10⁻⁶ cm/s.

With O=C1S/C(=C\c2ccc(-c3ccccc3)cc2)C(=O)N1CNc1nc(-c2ccccc2)cs1 the IC50 [2] was “Not_active”, the Activity [9] was “Non-toxic” and the Papp at 20 h [10] was 14.2 ×10⁻⁶ cm/s. For the same compound, the IC50 ([3]; read-out: IC50) was 63 nM and the logP [11] was 6.78.

With COc1ccc(C2CC(c3ccc(O)cc3)=NN2c2nc3ccc(C)cc3s2)cc1OC (stereo not given) the IC50 [7] was 8690 nM.

O=C1S/C(=C\c2c[nH]c3ccccc23)C(=O)N1c1csc(Nc2ccccc2)n1 showed an IC50 ([1]; read-out: IC50) of 33400 nM, an IC50 ([2]; read-out: IC50) of 19200 nM and an IC50 [12] of 17400 nM. For the same compound, the IC50 ([3]; read-out: IC50) was 690 nM.

Compound O=C(CN1C(=O)S/C(=C\c2ccc(O)cc2)C1=O)Nc1nccs1 has an IC50 ([1]; read-out: IC50) of 51800 nM and an IC50 ([3]; read-out: IC50) of 9030 nM.

Work on CS(=O)(=O)c1ccc(-n2cc(/C=C3/SC(=O)NC3=O)c(-c3ccccc3)n2)cc1 yielded an IC50 [16] of 480 nM.

For C/C=C1\SC(=O)N(CNc2nc(-c3cc(Cl)cs3)c(Nc3ccc(S(N)(=O)=O)cc3)s2)C1=O, the IC50 [1] was “Not_active”, the IC50 ([2]; read-out: IC50) was 510 nM and the Activity [9] was “Non-toxic”. The Papp at 20 h [10] was 9.1 ×10⁻⁶ cm/s, the IC50 [12] was 110 nM and the IC50 [3] was “Not_active”. The logP [11] was 4.86.

Compound Cc1nnc2n1-c1ccc(Cl)cc1C(c1ccccc1)=NC2 [ALPRAZOLAM] has a Papp at 20 h [10] of 5.59 ×10⁻⁶ cm/s.

Work on O=C(CN1C(=O)S/C(=C\c2c[nH]c3ccccc23)C1=O)Nc1nccs1 yielded an IC50 ([2]; read-out: IC50) of 1180 nM and an IC50 ([3]; read-out: IC50) of 160 nM.

In the case of O=C1S/C(=C\c2ccccc2)C(=O)N1c1csc(Nc2ccccc2)n1, the IC50 ([1]; read-out: IC50) is reported as 29300 nM, the IC50 ([2]; read-out: IC50) is reported as 10200 nM and the IC50 [12] is reported as 7180 nM. The IC50 ([3]; read-out: IC50) was 290 nM.
